Read-outs that look alike come from different tables or passages of the source.
Columns and labels:
[1] = test system: PC3 (prostate) carcinoma cell line; experiment: Anti-tumor properties, MTT; format: cell-based; conditions: Homo sapiens
gastric mucosa = experiment: Ulcerogenic liability (ulcer index); format: in vivo, albino mice; conditions: orally, three successive days, 10 mg/kg indomethacin mol equivalent; for Number of animals with ulcer: 6 animals per group; for Ulcer index: sum of the three values
In short: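 Albino mice were fasted 18 h before dosing, and controls got saline with a few drops of Tween 80. Gastric mucosa was checked under a 10× lens for lesions and erosions. The ulcer index combines percentage incidence divided by 10, mean ulcers per stomach and mean severity.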

[2] = test system: Staphylococcus aureus ATCC25923; experiment: Antimicrobial MIC, agar dilution
[3] = test system: HepG2 (hepatocellular) carcinoma cell line; experiment: Anti-tumor properties, MTT; format: cell-based; conditions: Homo sapiens, HepG2; read-out: IC50 (μM) HepG2 (liver)
In short: (§1)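 Cells seeded at 10×10^3 per well for 24 h, then exposed to compound in serum-free medium (final up to 100 μM, 0.5% DMSO vehicle) for 72 h in triplicate. Viability by MTT reduction (4 h, SDS solubilised), absorbance 595 nm/ref 620 nm; IC50 from survival curves.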

[4] = test system: MCF7 (breast) carcinoma cell line; experiment: Anti-tumor properties, MTT; format: cell-based; conditions: Homo sapiens, MCF7; read-out: IC50 (μM) MCF7 (breast)
In short: as §1

[5] = test system: HCT116 (colon) carcinoma cell line; experiment: Anti-tumor properties, MTT; format: cell-based; conditions: Homo sapiens, HCT-116; read-out: IC50 (μM) HCT116 (colon)
In short: as §1

[6] = test system: Pseudomonas aeruginosa ATCC27853; experiment: Antimicrobial MIC, agar dilution
[7] = test system: Salmonella typhi ATCC19430; experiment: Antimicrobial MIC, agar dilution; format: cell-based; conditions: Salmonella enterica, read-out: Minimum inhibitory concentration (MIC)
[8] = test system: PHA-stimulated splenocytes; experiment: Proliferative response of PHA-stimulated splenocytes (MTT assay); format: cell-based; conditions: PHA 5 μg/ml, 72 hr; compounds at 5 μM (method says 10 μM); ratio of O.D. versus vehicle control
In short: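 Readout was MTT absorbance (570 nm, reference 690 nm) after 72 h culture at 37° C. Splenocytes at 1×10^6 cells/well received test compound (10 μM final) alone or plus PHA 5 μg/ml as T-cell mitogen. Values are OD ratios of compound over vehicle control (stimulation index).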

[9] = test system: Streptococcus pyogenes ATCC19615; experiment: Antimicrobial MIC, agar dilution
[10] = test system: lipopolysaccharide-stimulated peritoneal macrophages; experiment: Production of nitric oxide by lipopolysaccharide-stimulated peritoneal macrophages (Greiss reagent); format: cell-based; set-up: Potency (%): % inhibition of nitric oxide production relative to lipopolysaccharide-stimulated macrophages: concentration or dose not given beside the values; conditions: LPS-stimulated peritoneal macrophages; for Nitric oxide (nitrite) concentration, μM (average ± SD): 24 h, nitrite by Greiss reagent
In short: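 NO output was quantified as accumulated nitrite, reacting supernatant with Greiss reagent (sulfanilamide/α-naphthylamine) and reading at 532 nm. Beforehand, cells had been incubated 24 h at 37° C. in nitrite-free, 0.1% BSA medium with 0.5–10 ng/ml LPS, with or without catecholamines at […].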

[11] = test system: Candida albicans (local isolate); experiment: Antimicrobial MIC, agar dilution; conditions: Candida albicans, read-out: Minimum inhibitory concentration (MIC)
[12] = test system: A-549 (lung) carcinoma cell line; experiment: Anti-tumor properties, MTT; format: cell-based; conditions: Homo sapiens, A549
[13] = ATCC25923, 18 h, read-out: Minimum inhibitory concentration (MIC)
[14] = ATCC25923, read-out: Minimum inhibitory concentration (MIC)
[15] = ATCC27853, 18 h, read-out: Minimum inhibitory concentration (MIC)
[16] = ATCC27853, read-out: Minimum inhibitory concentration (MIC)
[17] = ATCC19615, 18 h, read-out: Minimum inhibitory concentration (MIC)
[18] = ATCC19615, read-out: Minimum inhibitory concentration (MIC)

Row | Structure (SMILES) | IC50 [1] [µM] | % Incidence of ulcer divided by 10 (gastric mucosa) | Average of ulcer number (gastric mucosa) | Average severity of ulcer (gastric mucosa) | Number of animals with ulcer (gastric mucosa) | Ulcer index (gastric mucosa) | MIC [2, 13] [µg/mL] | MIC [2, 14] [µM] | IC50 [3] [µM] | IC50 [4] [µM] | IC50 [5] [µM] | MIC [6, 15] [µg/mL] | MIC [6, 16] [µM] | MIC ([7]; 18 h) [µg/mL] | MIC [7] [µM] | Stimulation Index (average ± SD) [8] | MIC [9, 17] [µg/mL] | MIC [9, 18] [µM] | Potency (%): % inhibition of nitric oxide production relative to lipopolysaccharide-stimulated macrophages [10] [%] | Nitric oxide (nitrite) concentration, μM (average ± SD) [10] [µM] | other results
1 | COc1cc(/C=C/C(=O)CC(=O)/C=C/c2ccc(OC(=O)[C@@H](C)N)c(OC)c2)ccc1OC(=O)[C@@H](C)N.Cl.Cl [HCl-D-Ala-Cur, (2R,2′R)-1,1′-((((1E,6E)-3,5-dioxohepta-1,6-diene-1,7-diyl)bis(2-methoxy-4,1-phenylene))bis(oxy))bis(1-oxopropan-2-aminium) chloride] | 30.7 | 0 | 0 | 0 | 0/6 | 0 | 0.125 | 0.214 | 34.3 | 10.4 | 39.2 | 1 | 1.71 | 0.25 | 0.428 | 1.35 ± 0.07 | 0.25 | 0.428 | 41.26 | 16.04 ± 0.46 | MIC ([11]; 18 h): 0.125 µg/mL; MIC [11]: 0.214 µM; IC50 [12]: 30.9 µM
2 | COc1cc(/C=C/C(=O)CC(=O)/C=C/c2ccc(OC(=O)CN)c(OC)c2)ccc1OC(=O)CN.Cl.Cl [HCl-Gly-Cur, 2,2′-((((1E,6E)-3,5-dioxohepta-1,6-diene-1,7-diyl)bis(2-methoxy-4,1-phenylene))bis(oxy))bis(2-oxoethan-1-aminium) chloride] | 38.7 | 0 | 0 | 0 | 0/6 | 0 | 0.5 | 0.9 | 39.8 | 9.15 | 36.2 | 1 | 1.8 | 0.25 | 0.45 | 0.99 ± 0.16 | 0.25 | 0.45 | 49.98 | 13.66 ± 1.05 | MIC ([11]; 18 h): 1 µg/mL; MIC [11]: 1.8 µM; IC50 [12]: 18.9 µM
3 | COc1cc(/C=C/C(=O)CC(=O)/C=C/c2ccc(OC(=O)[C@@H](N)CCSC)c(OC)c2)ccc1OC(=O)[C@@H](N)CCSC.Cl.Cl [HCl-L-Met-Cur, (2S,2′S)-1,1′-((((1E,6E)-3,5-dioxohepta-1,6-diene-1,7-diyl)bis(2-methoxy-4,1-phenylene))bis(oxy))bis(4-(methylthio)-1-oxobutan-2-aminium) chloride] | 42.6 | 0 | 0 | 0 | 0/6 | 0 | 0.25 | 0.355 | 39.8 | 11.3 | 61.9 | 0.5 | 0.711 | 0.125 | 0.178 | 1.49 ± 0.06 | 0.5 | 0.711 | 37.94 | 16.95 ± 0.40 | MIC ([11]; 18 h): 0.5 µg/mL; MIC [11]: 0.711 µM; IC50 [12]: 32.8 µM
4 | COc1cc(/C=C/C(=O)CC(=O)/C=C/c2ccc(OC(=O)CCN)c(OC)c2)ccc1OC(=O)CCN.Cl.Cl [HCl-β-Ala-Cur, 3,3′-((((1E,6E)-3,5-dioxohepta-1,6-diene-1,7-diyl)bis(2-methoxy-4,1-phenylene))bis(oxy))bis(3-oxopropan-1-aminium) chloride] | 30.2 | 0 | 0 | 0 | 0/6 | 0 | 1 | 1.71 | 36.4 | 9.36 | 42.3 | 1 | 1.71 | 1 | 1.71 | 1.39 ± 0.98 | 1 | 1.71 | 41.68 | 15.93 ± 0.29 | MIC ([11]; 18 h): 0.5 µg/mL; MIC [11]: 0.857 µM; IC50 [12]: 32.4 µM
5 | COc1cc(/C=C/C(=O)CC(=O)/C=C/c2ccc(OC(=O)[C@@H](C)NC(=O)OCc3ccccc3)c(OC)c2)ccc1OC(=O)[C@@H](C)NC(=O)OCc1ccccc1 [Z-D-Ala-Cur, ((1E,6E)-3,5-dioxohepta-1,6-diene-1,7-diyl)bis(2-methoxy-4,1-phenylene) (2R,2′R)-bis(2-(((benzyloxy)carbonyl)amino)propanoate)] | > 100 | 0 | 0 | 0 | 0/6 | 0 | 0.5 | 0.642 | > 100 | 73 | > 100 | 1 | 1.28 | 0.5 | 0.642 | 1.59 ± 0.14 | 0.125 | 0.161 | 35.45 | 17.63 ± 0.92 | MIC ([11]; 18 h): 0.5 µg/mL; MIC [11]: 0.642 µM; IC50 [12]: > 100 µM
6 | COc1cc(/C=C/C(=O)CC(=O)/C=C/c2ccc(OC(=O)[C@@H](CCSC)NC(=O)OCc3ccccc3)c(OC)c2)ccc1OC(=O)[C@@H](CCSC)NC(=O)OCc1ccccc1 [Z-D-Met-Cur, ((1E,6E)-3,5-dioxohepta-1,6-diene-1,7-diyl)bis(2-methoxy-4,1-phenylene) (2R,2′R)-bis(2-(((benzyloxy)carbonyl)amino)-4-(methylthio)butanoate)] | > 100 | 0 | 0 | 0 | 0/6 | 0 | 0.125 | 0.139 | > 100 | > 100 | > 100 | 1 | 1.11 | 0.5 | 0.556 | 1.37 ± 0.29 | 0.125 | 0.139 | 40.84 | 16.16 ± 1.90 | MIC ([11]; 18 h): 0.125 µg/mL; MIC [11]: 0.139 µM; IC50 [12]: > 100 µM

From patent publication US10660967B2, “Curcumin conjugates and methods of use thereof” (priority 2016, dated 2020)
